The pIC50 is −log10 of the IC50, conventionally taken in molar units. As usually defined, the pEC50 is the negative decadic logarithm of the EC50, by convention in mol/L. Higher therefore signals a low EC50. By melting point is commonly meant the temperature of the solid-liquid transition.

The record followed here is patent publication US6518272B2, “Cycloalkyl-substituted aryl-piperazines, piperidines and tetrahydropyridines as serotonergic agents” (Wyeth, priority 1998, dated 2003).

Molecules are shown by their SMILES. pEC50, pIC50: −log10 of the molar value. Counter-ions that a name gives are not always drawn.

For data set [1], the target named is T1, human 5-HT1A receptor (Homo sapiens, UniProt P08908).
T1 construct: expressed in transfected cells; host or cells: CHO cells (stably transfected)
T1 sequence (P08908 1-422): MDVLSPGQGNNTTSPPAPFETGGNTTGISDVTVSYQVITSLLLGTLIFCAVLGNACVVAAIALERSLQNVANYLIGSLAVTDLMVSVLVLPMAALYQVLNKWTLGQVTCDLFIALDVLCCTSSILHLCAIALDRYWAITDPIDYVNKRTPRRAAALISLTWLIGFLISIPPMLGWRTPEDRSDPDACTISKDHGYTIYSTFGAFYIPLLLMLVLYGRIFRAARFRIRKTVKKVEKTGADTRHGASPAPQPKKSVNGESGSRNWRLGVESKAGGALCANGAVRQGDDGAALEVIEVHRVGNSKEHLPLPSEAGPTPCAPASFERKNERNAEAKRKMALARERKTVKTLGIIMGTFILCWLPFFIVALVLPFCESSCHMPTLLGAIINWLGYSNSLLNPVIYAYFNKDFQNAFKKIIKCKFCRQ
The data set is described as follows: Antagonist activity: antagonism of 8-OHDPAT inhibition of forskolin-stimulated cAMP accumulation in transfected CHO cells. It counts as cell-based. The settings on record: CHO cells with human 5-HT1A receptor. The text has this:
(§1) Methods, 40, 47-55 (1998); variation of a procedure described by J. Zgombick et al., Naunyn-Schmiedeberg's Arch. Pharmacol., 354, 226-236 (1996)].
(Changes in cAMP serve as a functional read-out for many G protein-coupled receptors.)

The target in data set [2] is T1, human 5-HT1A receptor. As to the kind of experiment: Displacement of [3H] 8-OHDPAT from the 5-HT1A receptor in transfected CHO cells. In kind it is binding. From the text: Affinity for the serotonin 5-HT1A receptor was established by assaying the test compound's ability to displace [^3H] 8-OHDPAT from its binding site on the receptor complex in CHO cells stably transfected with the human 5-HT1A receptor following the procedure described by J. Dunlop, Y. Zhang, D. Smith and L. Schechter (Eur. J. Pharmacol., submitted; variation of a procedure described by J. Zgombick et al., Naunyn-Schmiedeberg's Arch. Pharmacol., 354, 226-236 (1996)).
In general terms: Loss of bound radioactivity is the signal in a displacement assay; it reports binding, not function.

The target in data set [3] is T1, human 5-HT1A receptor. The data set is described as follows: Agonist activity: inhibition of forskolin-stimulated cAMP accumulation in transfected CHO cells. It counts as cell-based. Particulars: CHO cells with human 5-HT1A receptor.
Excerpt: as §1

Setting [4] is: displacement of [3H] 8-OHDPAT, CHO cells stably transfected with the human 5-HT1A receptor, read-out: 5-HT1A Affinity (IC50).

Regarding `COc1ccccc1C1CCN(C[C@@H](CC2CCCCC2)N(C)C(=O)C2CCCCC2)CC1` [Example 17, Cyclohexanecarboxylic Acid {(1R)-1-Cyclohexylmethyl-2-[4-(2-methoxyphenyl)-piperidin-1-yl]-ethyl}-methyl-amide], the negative logarithm of the IC50 (pIC50) at human 5-HT1A receptor [1] was 7.04; on human 5-HT1A receptor [2] (setting [4]) it was 8.77.

Regarding `COc1ccccc1N1CCN(C[C@@H](CC2CCCCC2)NC(=O)C2CCCCC2)CC1` [Example 1, Cyclohexanecarboxylic Acid {(1R)-1-Cyclohexylmethyl-2-[4-(2-methoxyphenyl)-piperazin-1-yl]-ethyl}-amide], at human 5-HT1A receptor [2] (setting [4]), the negative logarithm of the IC50 (pIC50) is 9.24. On human 5-HT1A receptor [3], this molecule showed a pEC50 of 9.30. On to `COc1ccccc1C1CCN(C[C@@H](CC2CCCCC2)NC(=O)C2(C)CCCCC2)CC1` [Example 16, 1-Methyl-cyclohexanecarboxylic acid {(1R)-1-cyclohexylmethyl-2-[4-(2-methoxyphenyl)-piperidin-1-yl]-ethyl}-amide], for which the pIC50 on human 5-HT1A receptor [1] was 7.34; at human 5-HT1A receptor [2] (setting [4]), 8.22. In the case of `CN(C(=O)C1CCCCC1)[C@H](CC1CCCCC1)CN1CCN(c2cccc3c2OCCO3)CC1` [Example 5], the negative logarithm of the IC50 (pIC50) is 8.34 against human 5-HT1A receptor [1] and 8.63 at human 5-HT1A receptor [2] (setting [4]).

In the case of `CN(C(=O)C1CCCCC1)[C@H](CC1CCCCC1)CN1CCN(c2cccc3[nH]ccc23)CC1` [Example 7, Cyclohexanecarboxylic Acid {(1R)-1-Cyclohexylmethyl-2-[4-(1H-indol-4-yl)-piperazin-1-yl]-ethyl}-methyl-amide], the negative logarithm of the IC50 (pIC50) against human 5-HT1A receptor [1] was 7.98; on human 5-HT1A receptor [2] (setting [4]), 8.05. Turning to `CN(C(=O)C1(C)CCCCC1)[C@H](CC1CCCCC1)CN1CCN(c2cccc3[nH]ccc23)CC1` [Example 8], the pIC50 at human 5-HT1A receptor [2] (setting [4]) is 7.49. On the same count and under the same terms, to `COc1ccccc1C1CCN(C[C@@H](CC2CCCCC2)N(C)C(=O)C(C)(C)C)CC1` [Example 20, N-{(1R)-1-Cyclohexylmethyl-2-[4-(2-methoxyphenyl)-piperidin-1-yl]-ethyl}-2,2,N-trimethyl-propionamide] belongs 8.30. With `COc1ccccc1N1CCN(C[C@@H](CC2CCCCC2)N(C)C(=O)C2(C)CCCCC2)CC1` [Example 4, 1-Methyl-cyclohexanecarboxylic Acid {(1R)-1-Cyclohexylmethyl-2-[4-(2-methoxyphenyl)-piperazin-1-yl]-ethyl}-methyl-amide], the negative-log IC50 (pIC50) at human 5-HT1A receptor [1] was 7.99; at human 5-HT1A receptor [2] (setting [4]), 8.55. For `COc1ccccc1C1CCN(C[C@@H](CC2CCCCC2)N(C)C(=O)C2(C)CCCCC2)CC1` [Example 18, 1-Methyl-cyclohexanecarboxylic Acid {(1R)-1-Cyclohexylmethyl-2-[4-(2-methoxypheniyl)-piperidin-1-yl]-ethyl}-methyl-amide], the pIC50 on human 5-HT1A receptor [1] is 7.01; on human 5-HT1A receptor [2] (setting [4]) it was 8.27. Regarding `CN(C(=O)C1(C)CCCCC1)[C@H](CC1CCCCC1)CN1CCN(c2cccc3c2OCCO3)CC1` [Example 6, 1-Methyl-cyclohexanecarboxylic Acid {(1R)-1-Cyclohexylmethyl-2-[4-(2,3-dihydro-benzo[1,4]dioxin-5-yl)-piperazin-1-yl]-ethyl}-methyl-amide], the negative-log IC50 (pIC50) was 8.14 at human 5-HT1A receptor [1] and 8.16 at human 5-HT1A receptor [2] (setting [4]). In the case of `O=C(N[C@H](CC1CCCCC1)CN1CCN(c2ncccn2)CC1)C1CCC1` (as salt: hydrochloride) [Example 11, Cyclobutane Carboxylic Acid {(1R)-1-Cyclohexylmethyl-2-[4-(pyrimidin-2-yl)-piperazin-1-yl]-ethyl}-amide], the melting point was in the range of 112 to 114 °C. For the molecule `COc1ccccc1C1CCN(C[C@@H](CC2CCCCC2)NC(=O)C(C)(C)C)CC1` [Example 19, N-{(1R)-1-Cyclohexylmethyl-2-[4-(2-methoxyphenyl)-piperidin-1-yl]-ethyl}-2,2-dimethyl-propionamide], the figures for the pIC50 on human 5-HT1A receptor [1] and at human 5-HT1A receptor [2] (setting [4]) were 7.40 and 8.66, respectively.

The molecule `COc1ccccc1N1CCN(C[C@@H](CC2CCCCC2)NC(=O)C2(C)CCCCC2)CC1` (as salt: hydrochloride) (hydrate or solvate) [Example 2, 1-Methyl-cyclohexanecarboxylic Acid of {(1R)-1-Cyclohexylmethyl-2-[4-(2-methoxyphenyl)-piperazin-1-yl]-ethyl}-amide] yielded a melting point of 119 to 121 °C. The same measure, in the same setting: the figure for `COc1ccccc1C1CCN(C[C@@H](CC2CCCCC2)NC(=O)C2(C)CCCCC2)CC1` (as salt: hydrochloride) (hydrate or solvate) [Example 16, 1-Methyl-cyclohexanecarboxylic acid {(1R)-1-cyclohexylmethyl-2-[4-(2-methoxyphenyl)-piperidin-1-yl]-ethyl}-amide] is 208 to 210 °C; for `O=C(N[C@H](CC1CCCCC1)CN1CCN(c2nccc3ccccc23)CC1)C1CCCCC1` (as salt: hydrochloride) [Example 14, Cyclohexanecarboxylic Acid {(1R)-1-Cyclohexylmethyl-2-[4-(isoquinolin-1-yl)-piperazin-1-yl]-ethyl}-amide] it is 155 to 159 °C. Still for that read-out and setting: the figure for `COc1ccccc1N1CCN(C[C@@H](CC2CCCCC2)NC(=O)C2CCCCC2)CC1` (as salt: hydrochloride) [Example 1, Cyclohexanecarboxylic Acid {(1R)-1-Cyclohexylmethyl-2-[4-(2-methoxyphenyl)-piperazin-1-yl]-ethyl}-amide] is 121 to 131 °C. With `COc1ccccc1N1CCN(C[C@@H](CC2CCCCC2)NC(=O)C2(C)CCCCC2)CC1` [Example 2, 1-Methyl-cyclohexanecarboxylic Acid of {(1R)-1-Cyclohexylmethyl-2-[4-(2-methoxyphenyl)-piperazin-1-yl]-ethyl}-amide], the negative logarithm of the IC50 (pIC50) was 7.84 against human 5-HT1A receptor [1] and 8.91 at human 5-HT1A receptor [2] (setting [4]). `COc1cccc(N2CCN(C[C@H](CC3CCCCC3)NC(=O)C3CCCCC3)CC2)n1` (as salt: hydrochloride) [Example 12, Cyclohexane Carboxylic Acid {(1S)-1-Cyclohexylmethyl-2-[4-(6methoxypyridin-2-yl)-piperazin-1-yl]-ethyl}-amide] had a melting point of 107 to 109 °C. For the molecule `COc1ccccc1N1CCN(C[C@@H](CC2CCCCC2)NC=O)CC1` (as salt: hydrochloride) (hydrate or solvate) [Example 9, N-{(1R)-1-Cyclohexylmethyl-2-[4-(2-methoxyphenyl)-piperazin-1-yl]-ethyl}-formamide], the melting point fell in the range of 157 to 159 °C. On the same count and under the same terms, the figure for `COc1ccccc1C1CCN(C[C@@H](CC2CCCCC2)N(C)C(=O)C(C)(C)C)CC1` (as salt: hydrochloride) (hydrate or solvate) [Example 20, N-{(1R)-1-Cyclohexylmethyl-2-[4-(2-methoxyphenyl)-piperidin-1-yl]-ethyl}-2,2,N-trimethyl-propionamide] is 233 to 236 °C. With `COc1ccccc1N1CCN(C[C@@H](CC2CCCCC2)NC=O)CC1` [Example 9, N-{(1R)-1-Cyclohexylmethyl-2-[4-(2-methoxyphenyl)-piperazin-1-yl]-ethyl}-formamide], the pIC50 was 7.76 against human 5-HT1A receptor [1] and 8.83 at human 5-HT1A receptor [2] (setting [4]). `COc1ccccc1C1CCN(C[C@@H](CC2CCCCC2)N(C)C(=O)C2CCCCC2)CC1` (as salt: hydrochloride) (hydrate or solvate) [Example 17, Cyclohexanecarboxylic Acid {(1R)-1-Cyclohexylmethyl-2-[4-(2-methoxyphenyl)-piperidin-1-yl]-ethyl}-methyl-amide] displayed a melting point of 135 to 137 °C. For the molecule `COc1ccccc1C1=CCN(C[C@@H](CC2CCCCC2)NC(=O)C2(C)CCCCC2)CC1` [Example 21, 1-Methyl-cyclohexanecarboxylic Acid {(1R)-1-Cyclohexylmethyl-2-[4-(2-methoxyphenyl)-3,6-dihydro-2H-pyridin-1-yl]-ethyl}-amide], the negative-log IC50 (pIC50) on human 5-HT1A receptor [1] is 7.34; on human 5-HT1A receptor [2] it was 8.56.

As for `COc1ccccc1C1CCN(C[C@@H](CC2CCCCC2)NC(=O)C2CCCCC2)CC1` (as salt: hydrochloride) (hydrate or solvate) [Example 15, Cyclohexanecarboxylic Acid {(1R)-1-Cyclohexylmethyl-2-[4-(2-methoxyphenyl)-piperidin-1-yl]-ethyl}-amide], the melting point lay in the range of 100 to 103 °C. Regarding `COc1ccccc1N1CCN(C[C@@H](CC2CCCCC2)N(C)C(=O)C2CCCCC2)CC1` [Example 3, Cyclohexanecarboxylic Acid {(1R)-1-Cyclohexylmethyl-2-[4-(2-methoxyphenyl)-piperazin-1-yl]-ethyl}-methyl-amide], the negative-log IC50 (pIC50) against human 5-HT1A receptor [1] is 8.40; on human 5-HT1A receptor [2] (setting [4]), 8.84. For `O=C(N[C@H](CC1CCCCC1)CN1CCN(c2nccc3ccccc23)CC1)C1CCCCC1` [Example 14, Cyclohexanecarboxylic Acid {(1R)-1-Cyclohexylmethyl-2-[4-(isoquinolin-1-yl)-piperazin-1-yl]-ethyl}-amide], the pIC50 at human 5-HT1A receptor [2] (setting [4]) is 8.77.
